Here are results for three molecules from patent US8598383B2, “Pharmaceutical composition for treating or preventing degenerative and inflammatory diseases” (Neurotech Pharmaceuticals Co., Ltd., priority 2006, dated 2013).

In general, LD50 refers to the dose at which mortality reaches 50%. Lower therefore signals greater toxicity. The term IC50 denotes the concentration needed to halve the response being measured. Read a high IC50 as weaker potency in that assay.

The test system of one data set is atherosclerosis. The conditions noted are these: early formation of atherosclerotic lesion; cited from earlier work.
For a further data set, the system named is gastric mucous membrane. The experiment in a line: Safety test about induction of gastric mucous membrane damage. It counts as in vivo. The conditions noted are these: oral, high dose; indomethacine, ibuprofen, celecoxib as control. On the procedure:
Test samples were orally administered at different doses to evaluate the degree of the gastric mucous membrane damage. Aspirin was used as control.
FIG. 2 is results showing degrees of the gastric mucous membrane damage. Test samples were orally administered at indicated doses. […] Indomethacine, ibuprofen and celecoxib were used as control.
Conventional NSAIDs have side effects causing damages to the gastric mucous membrane. Therefore, it was evaluated whether compound 2 having anti-inflammatory effect causes the gastric damage or not. 30, 100 or 300 mg/kg of aspirin was orally administered as control.

The subject of data set [1] is collagen-induced arthritis. Description: Collagen-induced arthritis model (arthritic index). It is filed as in vivo, mouse. The settings on record: 25 mg/kg/day intraperitoneal. On the procedure: FIG. 15 is results showing efficacy through arthritis animal model induced by collagen. 25 mg/kg of compound 2, 3 or 18, or methotrexate (control, MTX, 1 mg/kg/week) was intraperitoneally injected after administration of collagen.
FIG. 16 is results showing efficacy of compounds 6 and 11 through arthritis animal model induced by collagen. Collagen was intradermally injected two times with 2 week-interval. One week later, compound 6, compound 11 and methotrexate (control) were intraperitoneally injected. Then, the animals were observed everyday for 2-3 weeks, and results was evaluated by arthritis index.
To evaluate the efficacy of the 2-hydroxybenzoic acid derivative, collagen-induced arthritis model (rheumarthritis animal model) was used. Bovine type II collagen was mixed with complete Freund's adjuvant to make an emulsion, and the emulsion was intradermally injected into the origin site of 8˜10 week-old DBA/1LacJ mouse tail. Intradermal boosting was performed by the same method 2 weeks later. 25 mg/kg/day of compounds 2, 3 and 18, 1 mg/kg/week of methotrexate (comparative example) or 10% vehicle (control) were intraperitoneally injected one week after the second intradermal injection of collagen (FIG. 15). Pictures of foot edema of normal rat (sham), collagen-administered rat (collagen) and compound 18-administered rat (compound 18, 25 mg/kg/day injection) were shown in FIG. 14.
In addition, 50 mg/kg/day of compounds 6 and 11, and 5 mg/kg/2 days of methotrexate (comparative example) were intraperitoneally injected. Phosphate buffered saline was injected as control (FIG. 16). For 2˜3 weeks, the degree of arthritis was observed everyday, and the result was evaluated according to the below arthritic index using edema.
4 paws were evaluated as from 0 to 4 point, Total points: 16

Data set [2] can be described thus: Single-dose toxicity test. It is filed as in vivo. The settings on record: mouse, in vivo; single dose. As to the method:
FIG. 32 is results of single dose toxicity testing of some 2-hydroxybenzoic acid derivatives according to the present invention.
Single-dose toxicities of the 2-hydroxybenzoic acid derivatives were evaluated.

Data set [3] deals with cerulein-induced pancreatitis. The experiment in a line: Cerulein-induced acute pancreatitis model. It counts as in vivo, wistar rat. As to the method:
FIG. 21 is efficacy test results using acute pancreatitis model induced by cerulein. 50 ug/kg of cerulein was administered. Two hours later, edema was induced by administration of LPS. A-C are picture results, and D is graphs showing the weight of pancreas.
FIG. 22 is efficacy test results using acute pancreatitis model induced by cerulein. 50 ug/kg of cerulein was administered. Two hours later, edema was induced by administration of LPS. 25 mg/kg of compound 18 was administered, and the changes of amylase and lipase, pancreatic digestive enzymes, were quantified.
Cerulein-induced pancreatitis model was used as acute pancreatitis model. Cerulein is an analog of cholecystokinin and a hormone causing secretion of pancreatic digestive enzyme in pancreas. Digestive enzyme was over-secreted into pancreas by intraperitoneal injection of cerulein (50 ug/kg). LPS was injected 2 hours later to induce edema. When cerulein was administered, massive edema was observed on the basis of spleen. […] D of FIG. 21 is results showing the pancreas weight increased by the edema.
The model excessively increases digestive enzymes, which are released into blood. That is, the decrease of digestive enzyme in blood can be an indirect evidence for sample to reduce pancreatitis.
To confirm the protecting effect on inflammation, the levels of TNF-α and […], inflammatory cytokines, were evaluated. PGE2, the product of COX-2 (inflammation enzyme), were evaluated by ELISA method.

The test system of a further data set is DSS-induced colitis. The experiment in a line: 5% dextran sulfate sodium (DSS) inflammatory intestinal disease model. It is filed as in vivo, mouse. As to the method:
FIG. 17 is results showing efficacy through 5% dextran sulfate sodium (DSS) model, inflammatory intestinal disease animal model. After treatment of DSS, 10, 25 or 50 mg/kg of compound 18 suspended in 10% vehicle was orally administered. Sham means colon of normal mouse, DSS means colon mouse treated with 5% DSS. The others are pictures of colon of mice administered with compound 18 at indicated dose.
FIG. 20 is an efficacy test result of compound 18 using DSS. After treatment of DSS, compound 18 (25 mg/kg) suspended in 10% vehicle was orally administered. After that, bloody excrement by colon injury, diarrhea and the degree of dirtiness were evaluated as feces score.
5% dextran sulfate sodium (DSS) model was used as inflammatory intestinal disease animal model. 5% DSS mixed with water was orally administered. 5% DSS model causes damage to epithelial cell, and ulcer in left colon and the decrease of colon length are mainly observed in the model. This model is simple and reproductive, and can regulate the degree of inflammation according to dose. Therefore, this model is often used for evaluating drug candidates.
DSS is continuously administered in water bottle. The 2-hydroxybenzoic acid derivative was suspended in 10% vehicle, and orally administered.

The test system of another data set is BV2 microglia cell line. Description: Suppressing effect on production of NO (LPS, Griess reagent). The conditions noted are these: Mus musculus, BV-2, LPS-treated BV2 microglia, 24 hours incubation. It is filed as cell-based. On the procedure: Inhibiting effect of the 2-hydroxybenzoic acid derivative according to the present invention on NO, inflammatory factor intervening inflammation reaction was evaluated. BV2 microglia cell line was treated with lipopolysaccharide (LPS), a inflammation-inducing material of bacteria toxin, with inclusion of 10 uM, 30 uM or 100 uM of the present compound. After 24 hours of incubation, 50 ul of culture medium was collected in 96-well plate. Then, 50 ul of Griess reagent was added and incubated for 10 minutes at room temperature. The absorbance was evaluated by ELISA reader at 540 nm.
(Nitrite, measured by Griess reagent, commonly stands in for NO production.)

The next data set deals with diabetic symptoms. The conditions noted are these: mouse administered streptozotocin; cited from earlier work.

As to `COc1ccc2c(c1)c(CC(=O)O)c(C)n2C(=O)c1ccc(Cl)cc1` [indomethacine], the reduction of atherosclerosis in the data set on atherosclerosis was 38-51%.

Consider `CC(=O)Oc1ccc(NCCc2ccc(C(F)(F)F)cc2)cc1C(=O)O` [compound 18, 2-acetoxy-5-[2-(4-trifluoromethyl-phenyl)-ethylamino]-benzoic acid], for which the “gastric mucous membrane damage” value with gastric mucous membrane is reported as “did not cause damage to gastric mucous membrane”. Further, the arthritic index result in data set [1] is listed as “apparent reducing effect”. Besides, the median lethal dose (LD50) in data set [2] is greater than 3000 mg/kg. Further, in data set [3] (25 mg/kg), the “amylase and lipase in plasma” value was “significantly reduced the increase”; the pancreas weight entry is recorded as “significantly reduced pancreas weight”; the pancreatic edema result is on record as “the edema was decreased”. Further, in data set [3] (ELISA), the “TNF-α, IL-1β and PGE2 (inflammation markers)” value is listed as “significantly reduced these inflammation markers”. In addition, the “length and width of colon” value in the data set on DSS-induced colitis (oral, 10, 25 or 50 mg/kg in 10% vehicle) was “significantly changed the length and width of the colon”. Besides, the “feces score (bloody excrement, diarrhea, dirtiness)” value in the data set with DSS-induced colitis (vs DSS only, compound 18 25 mg/kg oral) is recorded as “significantly decreased feces score”. The molecule further had an IC50 in the data set with BV2 microglia cell line of 21.6 µM.

For `C[C@@H](O)CCCCn1c(=O)c2c(ncn2C)n(C)c1=O` [Lisofylline], the “reduction of diabetic symptoms” value in the data set with diabetic symptoms is 50%.
